Measurements taken from PMC3265452 (PLoS Neglected Tropical Diseases, 2012).
Counter-ions that a name gives are not always drawn. Like-named read-outs stand apart in the source and are kept apart here.

Target: AaDOP2 (Aedes aegypti, UniProt H6D5H2)
Assay: AaDOP2 antagonist screen of the LOPAC1280 library (HEK-CRELuc-Aadop2 cells, luminescence)
Assay type: cell-based
[1] = 10 µM compound, 300 nM dopamine, 2 hr, hit = compound effect <20

AaDOP2, sequence (H6D5H2 1-476): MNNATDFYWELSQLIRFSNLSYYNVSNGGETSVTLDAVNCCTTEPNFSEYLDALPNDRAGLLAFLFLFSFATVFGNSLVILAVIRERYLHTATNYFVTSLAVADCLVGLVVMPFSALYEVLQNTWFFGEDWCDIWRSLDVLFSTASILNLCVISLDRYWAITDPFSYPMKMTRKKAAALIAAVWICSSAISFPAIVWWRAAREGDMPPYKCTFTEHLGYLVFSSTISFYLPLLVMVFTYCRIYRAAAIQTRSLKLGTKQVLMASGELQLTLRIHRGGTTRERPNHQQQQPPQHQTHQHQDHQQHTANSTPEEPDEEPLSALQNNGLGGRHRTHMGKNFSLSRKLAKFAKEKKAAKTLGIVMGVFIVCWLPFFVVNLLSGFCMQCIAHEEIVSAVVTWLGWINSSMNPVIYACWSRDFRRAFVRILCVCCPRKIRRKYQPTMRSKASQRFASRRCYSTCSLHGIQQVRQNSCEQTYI

SMILES | Compound effect (percent receptor signaling in presence of test compound, relative lux units relative to the SCH23390 control) | other results
CCCCCCCC/C=C\CCCCCCCC(=O)NCCO [Compound 895, N-Oleoylethanolamine] |  | Compound effect (percent receptor signaling in presence of test compound, relative lux units relative to the SCH23390 control) [1]: 105%
CCn1cc(C(=O)O)c(=O)c2cc3c(cc21)OCO3 [Compound 896, Oxolinic acid] | 108 | 
Cn1cnc2c(NCc3ccccc3)nc(NCCO)nc21 [Compound 897, Olomoucine] | 47 | 
CCCCCCCC/C=C\CCCCCCCC(=O)O [Compound 898, Oleic Acid] | 95 | 
Cc1cc(C(C)(C)C)c(O)c(C)c1CC1=NCCN1 [Compound 899, Oxymetazoline hydrochloride] | 84 | 
NC(=O)C(=O)O [Compound 900, Sodium Oxamate] | 91 | 
CCN(CC)CC#CCOC(=O)C(O)(c1ccccc1)C1CCCCC1 (centres unmarked) [Compound 901, Oxybutynin Chloride] | 83 | 
NC(=O)CN1CC(O)CC1=O (centres unmarked) [Compound 902, Oxiracetam] | 101 | 
C[C@@H]1O[C@@H](O[C@H]2C[C@@H](O)[C@]3(CO)[C@H]4[C@H](O)C[C@]5(C)[C@@H](C6=CC(=O)OC6)CC[C@]5(O)[C@@H]4CC[C@]3(O)C2)[C@H](O)[C@H](O)[C@H]1O [Compound 903, Ouabain] | 50 | 
O=c1onc2cnc3ccccc3n12 [Compound 904, ODQ] | 98 | 
CC1COc2c(N3CCN(C)CC3)c(F)cc3c(=O)c(C(=O)O)cn1c23 (centres unmarked) [Compound 907, Ofloxacin] | 92 | 
O=C(O)/C=C/C(=O)O.O=C(O)/C=C/C(=O)O.O=C(O)/C=C/C(=O)O.O=C1CCCN1CC#CCN1CCCC1.O=C1CCCN1CC#CCN1CCCC1 [Compound 908, Oxotremorine sesquifumarate salt] | 88 | 
O=c1[nH]c2ccccc2n1CCCN1CCN(C(c2ccccc2)c2ccccc2)CC1 [Compound 909, Oxatomide] | 72 | 
Cn1cc(C2=C(c3ccc(Cl)cc3Cl)C(=O)NC2=O)c2ccccc21 [Compound 910, SB 216763] | 80 | 
O=C(O)CCc1nc(-c2ccccc2)c(-c2ccccc2)o1 [Compound 911, Oxaprozin] | 106 | 
C[N+](C)(C)CC#CCN1CCCC1=O [Compound 912, Oxotremorine methiodide] | 99 | 
CC(=O)[C@H]1CC[C@H]2[C@@H]3CCC4=CC(=O)CC[C@]4(C)[C@H]3CC[C@]12C [Compound 914, Progesterone] | 77 | 
CCCCCCCCCCCCCCCC(=O)NCCO [Compound 915, Palmitoylethanolamide] | 89 | 
N=C(N)c1ccc(OCCCCCOc2ccc(C(=N)N)cc2)cc1 [Compound 917, Pentamidine isethionate] | 87 | 
C=C1C(=O)O[C@H]2[C@H]1CC/C(C)=C/CC[C@@]1(C)O[C@@H]21 [Compound 919, Parthenolide] | 74 | 
CC(C)NCC(O)COc1cccc2[nH]ccc12 (centres unmarked) [Compound 920, Pindolol] | 96 | 
N[C@@H](COP(=O)(O)O)C(=O)O [Compound 921, O-Phospho-L-serine] |  | Compound effect (percent receptor signaling in presence of test compound, relative lux units relative to the SCH23390 control) [1]: 102%
CCCC(C(=O)OCCN(CC)CC)(c1ccccc1)c1ccccc1.Cl [Compound 923, SKF-525A hydrochloride] |  | Compound effect (percent receptor signaling in presence of test compound, relative lux units relative to the SCH23390 control) [1]: 88%
N#Cc1c(-c2ccccc2)no[n+]1[O-] [Compound 925, 4-Phenyl-3-furoxancarbonitrile] | 93 | 
CC(=O)CCCCn1c(=O)c2c(ncn2C)n(C)c1=O [Compound 926, Pentoxifylline] | 119 | 
O=c1[nH]c2ccccc2n1C1CCN(CCCC(c2ccc(F)cc2)c2ccc(F)cc2)CC1 [Compound 927, Pimozide] | 61 | 

SMILES | Compound effect (percent receptor signaling in presence of test compound, relative lux units relative to the SCH23390 control) | other results
O=C(O)CC[C@@H](C(=O)O)N1C(=O)c2ccccc2C1=O [Compound 928, L-Glutamic acid, N-phthaloyl-] |  | Compound effect (percent receptor signaling in presence of test compound, relative lux units relative to the SCH23390 control) [1]: 106%
CC(=O)O[C@H]1C[C@@H]2CC[C@@H]3[C@H](CC[C@@]4(C)[C@H]3C[C@H]([N+]3(C)CCCCC3)[C@@H]4OC(C)=O)[C@@]2(C)C[C@@H]1[N+]1(C)CCCCC1 [Compound 929, Pancuronium bromide] | 96 | 
C[C@]12CC[C@@H](O)C[C@@H]1CC[C@@H]1[C@@H]2CC[C@]2(C)[C@@H](C(=O)CO)CC[C@@H]12 [Compound 930, 3-alpha,21-Dihydroxy-5-alpha-pregnan-20-one] | 96 | 
Cc1ccc(=O)n(-c2ccccc2)c1 [Compound 931, Pirfenidone] | 102 | 
Cn1c(=O)c2[nH]c(-c3ccccc3)nc2n(C)c1=O [Compound 932, 1,3-Dimethyl-8-phenylxanthine] | 107 | 
Cc1nc(N=Nc2cc(S(=O)(=O)[O-])c3cc([N+](=O)[O-])cc(S(=O)(=O)[O-])c3c2)c(COP(=O)([O-])[O-])c(C=O)c1O.[Na+].[Na+].[Na+].[Na+] [Compound 934, PPNDS tetrasodium] |  | Compound effect (percent receptor signaling in presence of test compound, relative lux units relative to the SCH23390 control) [1]: 106%
N=C1Sc2ccccc2C2=NCCCN12 [Compound 935, PD 404,182] | 101 | 
COc1ccc(Cc2nccc3cc(OC)c(OC)cc23)cc1OC [Compound 936, Papaverine hydrochloride] | 92 | 
C[N+]1(CCCCC[N+]2(C)CCCC2)CCCC1.O=C([O-])C(O)C(O)C(=O)O.O=C([O-])C(O)C(O)C(=O)O [Compound 937, Pentolinium di[L(+)-tartrate]] |  | Compound effect (percent receptor signaling in presence of test compound, relative lux units relative to the SCH23390 control) [1]: 94%
S=C(Nc1ccccc1)Nc1nccs1 [Compound 938, 1-Phenyl-3-(2-thiazolyl)-2-thiourea] | 84 | 
C=C/C(C)=C/[C@@]1(C)SC(=O)C(C)=C1O [Compound 939, Thiolactomycin] | 96 | 
N.N.[Cl][Pt][Cl] [Compound 940, Cisplatin] | 88 | 
COc1cc([C@@H]2c3cc4c(cc3[C@H](O)[C@H]3COC(=O)[C@H]23)OCO4)cc(OC)c1OC [Compound 941, Podophyllotoxin] | 84 | 
CC(C)[C@H](CO)Nc1nc(Nc2cccc(Cl)c2)c2ncn(C(C)C)c2n1 [Compound 942, Purvalanol A] | 7 | inhibition at 10 µM (read-out: % of the SCH23390 effect (percent inhibition of receptor response relative to the SCH23390 control)): 93%
C[C@H](Cc1ccccc1)Nc1ncnc2c1ncn2[C@@H]1O[C@H](CO)[C@@H](O)[C@H]1O [Compound 944, R(-)-N6-(2-Phenylisopropyl)adenosine] | 112 | 
CCCC(CCC)C(=O)O [Compound 945, Valproic acid sodium] | 85 | 
O=C(C1CCCCC1)N1CC(=O)N2CCc3ccccc3C2C1 (centres unmarked) [Compound 947, Praziquantel] | 81 | 
CCCNCC(O)COc1ccccc1C(=O)CCc1ccccc1 (centres unmarked) [Compound 948, Propafenone hydrochloride] | 74 | 
CC(=O)[C@H]1CC[C@H]2[C@@H]3CC[C@H]4C[C@H](O)CC[C@]4(C)[C@H]3C(=O)C[C@]12C [Compound 949, 5alpha-Pregnan-3alpha-ol-11,20-dione] | 89 | 
CN1C(C)(C)CCCC1(C)C [Compound 950, Pempidine tartrate] | 100 | 
NC(=O)CN1CCCC1=O [Compound 951, Piracetam] | 103 | 
C[C@@H]1O[C@@H]1P(=O)(O)O [Compound 952, Phosphomycin disodium] | 104 | 
COc1ccc(CN(CCN(C)C)c2ccccn2)cc1 [Compound 953, Pyrilamine maleate] | 59 | 
CN1C(C(=O)Nc2ccccn2)=C(O)c2ccccc2S1(=O)=O [Compound 954, Piroxicam] | 83 | 
CCCn1c(=O)[nH]c(=O)c2[nH]cnc21 [Compound 955, 3-n-Propylxanthine] | 93 | 
CNC[C@H](O)c1cccc(O)c1 [Compound 956, Phenylephrine hydrochloride] | 93 | 
